Type in all cases: cell-based, mouse
The subject of assay [1] is mesenchyme free lung explants (lung epithelium in Matrigel). Kind of assay: mesenchyme-free lung explant culture, growth and branching. The method, then:
(§1) Pancreas and individual lobes of the lungs were dissected from embryos harvested from timed pregnancy setups. Embryonic explants were cultured on 12 mm Transwell® with 0.4 μm polyester membrane insert (Corning, Tewsbury, Mass.) at the air-liquid interface in DME media with 10% fetal calf serum, glutamine and penicillin-streptomycin. For longer-term cultures (>3 days), media was changed daily.
For mesenchyme-free cultures, lungs were dissected and incubated in Collagenase/Dispase (1 mg/ml for each) for 10-15 minutes at room temperature. Epithelial tissue was removed by mechanical dissection, transferred to the Transwell® plates, and covered with 5-10 μl of 1:1 Matrigel:DME. After Matrigel was solidified, 400 μl media (DME/10% FCS/glutamine/pen-strep+200 ng/ml FGF7 (Life Technologies, Carlsbad, Calif.), FGF1 (Life Technologies), or EGF (Life Technologies)) was added to top and bottom wells. Erlotinib (Tarceva®, 1 μM hydrochloride salt; OSI Pharmaceuticals) or DMSO was added as indicated.
(§2) Embryonic explants were fixed in 4% paraformaldehyde, permeabilized in PBS with 2% BSA, 0.1% saponin or 0.1% Triton-X100. After washing, tissues were stained with anti-E-cadherin (Santa Cruz). Explants were mounted and imaged with a Leica SP5 laser confocal microscope. Images shown are representative of multiple independent experiments (n≧5) with littermate explants that were cultured, stained and imaged under substantially the same conditions and settings.
(§3) Homozygous germline mutations in LKB1 in mice are early embryonic lethal. […] This allele (Lkb1^MG) was “knocked-in” to the endogenous LKB1 locus to generate a genetically engineered mouse line that has been described in detail elsewhere (Lo et al., 2012, J. Cell. Biol., 199: 1117-1130). Lung and pancreas tissues from Lkb1^MG/MG embryos and wild-type littermates were dissected and grown in vitro for several days. Lung cultures were grown both as whole mount explants, and “mesenchyme-free” where most of the mesenchyme and other tissue types were stripped from the lung epithelium and the epithelium was cultured in Matrigel (Lu et al., 2005, J. Biol. Chem., 280: 4834-4841). During this time, the response of these tissues to growth factors was assessed.

The subject of assay [2] is whole mount lung explants. Kind of assay: whole mount lung explant culture, growth. The conditions noted are these: for size of terminal buds: addition of EGF. On the procedure:
as §1, §2, §3

The subject of the next assay is pancreatic explants. Briefly: pancreatic explant culture, cyst formation. On the procedure:
as §1, §2, §3

Results on three compounds are retold here after patent publication US20140314747A1, “PREDICTING RESPONSE TO EGFR INHIBITORS” (Genentech, Inc., priority 2013, published 2014).

For the compound “FGF-1: fibroblast growth factor (FGF)-1 (Life Technologies)”, in assay [1] (both LKB1 wt/wt and LKB1 MG/MG, presence and absence of NMPP1), the “growth of mesenchyme free lung cultures” value is given as “robust growth”.

Take “EGF: epidermal growth factor (Life Technologies) added to explant media (NSDSECPLSHDGYCLHDGVCMYIEALDKYACNCVVGYIGERCQYRDLKWWELR; UniProt P01133 971-1023, looked up)”: the growth entry in assay [1] (Lkb1 MG/MG explants, EGF 100 ng/ml in the presence of NMPP1) is recorded as “substantial growth”. In addition, in assay [1] (Lkb1 wt/wt explants, EGF 100 ng/ml in the presence of NMPP1), the “growth compared to no growth factor” value is on record as “modest increase in growth”. Further, the “size of terminal buds” value in assay [2] (LKB1 wt/wt lungs) was “only a modest increase in size”; in assay [2] (Lkb1 MG/MG lungs), “substantial enlargement of the terminal buds”. The “development of the cystic phenotype” value with pancreatic explants (EGF 100 ng/ml, with Lkb1 inhibition) is recorded as “accelerates the development of the cystic phenotype”. Moreover, the cyst formation result with pancreatic explants (EGF, in the absence of Lkb1 inhibition) was “does not by itself promote cysts”.

Regarding `C#Cc1cccc(Nc2ncnc3cc(OCCOC)c(OCCOC)cc23)c1` [erlotinib], the “effect on EGF-induced growth” value in assay [1] (mesenchyme free cultures, erlotinib 1 μM, EGF + NMPP1) was “inhibited”; in assay [2] (whole mount cultures, erlotinib 1 μM, EGF + NMPP1) it was “inhibited”. The “effect on development of the cystic phenotype” value in the assay on pancreatic explants (erlotinib 1 μM, Lkb1 inhibition (NMPP1) with EGF) is “inhibits the development of the cystic phenotype”.
